Laboratory results: PubChem BioAssay (NCI)
Several values for one entry are separate records, joined by “and”; a condition that tells them apart may be missing. Equal entries are not always repeated.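 Tested at 5 concentrations; 48 h exposure; 96-well plates; endpoints linearly interpolated, else capped at highest concentration. Abbreviation: GI50, concentration required for 50% inhibition of growth. TGI: concentration producing complete growth inhibition.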

Tests used:
Assay in all cases: growth of human tumour cells (NCI), 48 h
UO-31 renal = system: UO-31 renal
U251 CNS = system: U251 CNS
M19-MEL melanoma = system: M19-MEL melanoma
SN12C renal = system: SN12C renal
MALME-3M melanoma = system: MALME-3M melanoma
TK-10 renal = system: TK-10 renal
SNB-19 CNS = system: SNB-19 CNS
LXFL 529 NSCLC = system: LXFL 529 NSCLC
CAKI-1 renal = system: CAKI-1 renal
BT-549 breast = system: BT-549 breast

Compound | GI50 (UO-31 renal) | TGI (UO-31 renal) | GI50 (U251 CNS) | TGI (U251 CNS) | GI50 (M19-MEL melanoma) | TGI (M19-MEL melanoma) | GI50 (SN12C renal) | TGI (SN12C renal) | GI50 (MALME-3M melanoma) | TGI (MALME-3M melanoma) | GI50 (TK-10 renal) | TGI (TK-10 renal) | GI50 (SNB-19 CNS) | TGI (SNB-19 CNS) | GI50 (LXFL 529 NSCLC) | TGI (LXFL 529 NSCLC) | TGI (CAKI-1 renal) | GI50 (CAKI-1 renal) | TGI (BT-549 breast) | GI50 (BT-549 breast)
CC(=O)[O-].O=[N+]([O-])c1ccc([O-])c(C=NCCN=Cc2cc([N+](=O)[O-])ccc2[O-])c1.[Mn+3] | > 100 µM | > 100 µM | > 100 µM | > 100 µM | > 100 µM | > 100 µM | > 100 µM | > 100 µM | > 100 µM | > 100 µM | > 100 µM | > 100 µM | > 100 µM | > 100 µM | > 100 µM | > 100 µM |  |  |  | 
C=C1c2ccccc2N(S(=O)(=O)c2ccc(C)cc2)C12CCCCC2 |  | > 100 µM |  | > 100 µM |  | > 100 µM |  | > 100 µM |  | > 100 µM |  | > 100 µM |  | > 100 µM |  | > 100 µM |  |  |  | 
O=C1[C@H]2ON(c3ccccc3)C(c3cccc([N+](=O)[O-])c3)[C@H]2C(=O)N1c1ccc(Cc2ccc(N3C(=O)[C@@H]4ON(c5ccccc5)C(c5cccc([N+](=O)[O-])c5)[C@@H]4C3=O)cc2)cc1 (some centres not stated) |  | > 100 µM |  | > 100 µM |  | > 100 µM |  | > 100 µM |  | > 100 µM |  | > 100 µM |  | > 100 µM |  | > 100 µM | > 100 µM |  |  | 
O=c1ncccn1C1OC(CO)C(O)C1F (configuration not stated) | > 100 µM | > 100 µM |  | > 100 µM |  | > 100 µM |  | > 100 µM |  | > 100 µM |  | > 100 µM |  | > 100 µM |  | > 100 µM | > 100 µM |  |  | 
CC12O[Te]34OC1(C)C(C)(O3)C2(C)O4 |  | 23.5 µM |  | 15.2 µM |  | 25.5 µM |  | 23 µM |  | 32.7 µM |  | 29.4 µM |  | 37.5 µM |  | 26.7 µM | 22.6 µM |  |  | 
O=C1OC(c2ccc(Cl)c3ccccc23)c2ccccc21 (configuration not stated) |  | > 100 µM |  | > 100 µM |  | > 100 µM |  | > 100 µM |  | > 100 µM |  |  |  | > 100 µM |  |  | > 100 µM |  |  | 
C=CCN(N=O)C(=O)ON1C(=O)CCC1=O |  | > 100 µM |  | > 100 µM |  | > 100 µM |  | > 100 µM |  | > 100 µM |  | > 100 µM |  | > 100 µM |  | > 100 µM |  |  |  | 
CC1(C)Oc2ccccc2N2O[C@@H]3C(=O)N(c4ccccc4)C(=O)[C@@H]3C21c1ccccc1 (some centres not stated) |  | > 100 µM |  | 69.1 µM |  | 72.5 µM |  |  |  | 42.5 µM |  | 33.1 µM |  | 38.1 µM |  | > 100 µM | 60.8 µM |  |  | 
CCC1(Cl)C(=O)NC(=O)N(C2CC(O)C(CO)O2)C1N=[N+]=[N-] (configuration not stated) |  | > 100 µM |  | > 100 µM |  | > 100 µM |  | > 100 µM |  | > 100 µM |  | > 100 µM |  | > 100 µM |  | > 100 µM | > 100 µM |  |  | 
Nc1nc(Cl)cc(NCCCCCCNc2cc(Cl)nc(N)n2)n1 |  | > 100 µM |  | > 100 µM |  | > 100 µM |  | > 100 µM |  |  |  | > 100 µM |  | > 100 µM |  | > 100 µM | > 100 µM |  |  | 
CCOc1ccccc1NC(=O)CCC(=O)NN |  | > 100 µM |  | > 100 µM |  |  |  | > 100 µM |  | > 100 µM |  | > 100 µM |  | > 100 µM |  | > 100 µM | > 100 µM |  |  | 
O=c1/c(=C/c2ccc3c(c2)OCO3)sc2nnc(Cc3ccccc3)n12 |  | > 100 µM |  | > 100 µM |  | > 100 µM |  | > 100 µM |  | > 100 µM |  | > 100 µM |  | > 100 µM |  | > 100 µM | > 100 µM |  |  | 
COc1cc(-c2nn3c(=O)n(-c4ccc(Cl)cc4)c(=O)nc3s2)cc(OC)c1OC | > 50 µM | > 100 µM |  | > 69 µM | > 50 µM | > 100 µM | > 50 µM | > 100 µM | > 50 µM | > 100 µM | 19.7 µM | 50 µM and 29.6 µM | 37.4 µM | 50 µM and 83.8 µM |  |  | > 62.2 µM | > 50 µM |  | 
BrC(Br)([P+](c1ccccc1)(c1ccccc1)c1ccccc1)[P+](c1ccccc1)(c1ccccc1)c1ccccc1 |  | > 100 µM |  | 47.3 µM |  | 38.4 µM |  | 61.3 µM |  | 26.2 µM |  | > 100 µM |  |  |  | 34.5 µM | 39.5 µM |  |  | 
CC(C)(C)c1cc(C(=O)O)c(C(c2ccccc2)c2ccccc2C(=O)O)c(C(=O)O)c1 (configuration not stated) |  | > 100 µM |  | 25.4 µM |  |  |  | 49.1 µM |  | > 100 µM |  | > 100 µM |  | > 100 µM |  | > 100 µM | > 100 µM |  |  | 
O=C1c2c(O)ccc(O)c2C(=O)c2c(NCCNCCO)ccc(NCCNCCO)c21 |  | 0.835 µM and 0.668 µM and 2.55 µM |  | 0.151 µM and 0.499 µM and 0.376 µM |  | 0.925 µM |  | 0.162 µM and 1.57 µM and 0.214 µM |  | 1.45 µM and 0.955 µM and 0.974 µM |  | 1.36 µM and 0.654 µM and 2.05 µM |  | 0.546 µM and 2.08 µM and 0.79 µM |  |  | 1.07 µM and 0.18 µM |  | 0.5 µM and 2.11 µM and 0.54 µM | 
O=C(NOC(=O)c1ccc([N+](=O)[O-])cc1)c1ccc(Cl)cc1 |  | > 100 µM |  | > 100 µM |  | > 100 µM |  | > 100 µM |  | > 100 µM |  |  |  | > 100 µM |  | > 100 µM | > 100 µM |  |  | 
COc1ccc(-c2cn(-c3cc(OC)c(OC)c(OC)c3)c(=O)n2-c2ccccc2)cc1 | > 100 µM | > 100 µM | > 100 µM | > 100 µM |  |  | 84.3 µM | > 100 µM | 38.5 µM | > 100 µM | > 100 µM | > 100 µM | > 100 µM | > 100 µM |  |  | > 100 µM | > 100 µM | > 100 µM | > 100 µM
CN1C=C(C(N)=O)C2CC(O)[C@@](NC(=O)CS(N)(=O)=O)(C(=O)O)C2C1 (some centres not stated) |  | 14.1 µM |  | 11 µM |  | 15.8 µM |  | > 75.1 µM |  | 20.3 µM |  | 28.5 µM |  | 19.3 µM |  |  | > 100 µM |  |  | 
NC(=O)c1c(NC(=O)c2cccc(C(F)(F)F)c2)sc2c1CCC(=O)C2 | 0.291 µM | 1.19 µM | 0.307 µM | 16.6 µM |  |  | 0.392 µM | > 100 µM | 0.869 µM | 3.73 µM | 0.753 µM | 13.3 µM | 0.432 µM | > 100 µM |  |  | 7.29 µM | 0.351 µM | 9.08 µM | 0.352 µM
COC(=O)Cc1cc(=O)oc2c1C(=O)CCC2 |  | > 100 µM |  | > 100 µM |  | > 100 µM |  | > 100 µM |  | > 100 µM |  | > 100 µM |  | > 100 µM |  | > 100 µM | > 100 µM |  |  | 
O=c1c2ccccc2c(=O)c2c1sc1c(=O)c3ccc(O)cc3c(=O)c12 | 0.644 µM | 2.82 µM | 1.01 µM | 2.39 µM |  |  | 0.187 µM | 0.36 µM | 0.152 µM | 0.318 µM | 2.24 µM | 3.97 µM | 0.342 µM | 1.24 µM |  |  | 3.26 µM | 1.29 µM | 0.33 µM | 0.163 µM
